# Laboratory results published in article PMC10374445 (Nature Chemical Biology, 2023).
# Legend:
# [1] = test system: Nc1ncnc2c1ncn2[C@@H]1O[C@H](COP(=O)(O)OP(=O)(O)OP(=O)(O)O)[C@@H](O)[C@H]1O; test: purified protein; conditions: 0.3 µM heme, 3 mM MgCl2, pH 7.0, 37 °C, 0.02% DDM
# CydDC [2] = molecular target: T1, CydDC (Escherichia coli, UniProt P23886+P29018, P23886:E500Q); test: single-particle cryo-EM structure; conditions: Occ return apo state; both nucleotide-binding sites; turnover dataset with heme, ATP and Mg2+
# T1 construct: gene cydC; full-length heterodimer, C-terminal His6 on CydC, from pTTQ18 (pcydDC) in E. coli BL21 pLysS (DE3); purified in DDM (ATPase assays) or LMNG (cryo-EM)
# T1 sequence (P23886 whole entry E500Q): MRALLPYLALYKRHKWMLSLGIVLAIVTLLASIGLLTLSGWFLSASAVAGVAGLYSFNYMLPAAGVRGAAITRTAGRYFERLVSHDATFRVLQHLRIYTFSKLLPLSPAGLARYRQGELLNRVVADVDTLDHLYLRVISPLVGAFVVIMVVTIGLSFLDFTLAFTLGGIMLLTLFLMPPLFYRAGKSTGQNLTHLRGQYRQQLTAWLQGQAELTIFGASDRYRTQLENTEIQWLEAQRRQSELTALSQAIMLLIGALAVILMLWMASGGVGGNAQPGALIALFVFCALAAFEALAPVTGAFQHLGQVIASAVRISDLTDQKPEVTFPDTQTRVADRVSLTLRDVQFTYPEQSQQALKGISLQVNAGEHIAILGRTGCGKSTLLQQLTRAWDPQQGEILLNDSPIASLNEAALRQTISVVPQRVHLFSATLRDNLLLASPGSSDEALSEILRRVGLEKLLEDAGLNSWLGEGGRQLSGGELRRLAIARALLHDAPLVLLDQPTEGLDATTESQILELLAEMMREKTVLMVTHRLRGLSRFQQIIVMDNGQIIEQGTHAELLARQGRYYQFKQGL
# T1 sequence (P29018 whole entry): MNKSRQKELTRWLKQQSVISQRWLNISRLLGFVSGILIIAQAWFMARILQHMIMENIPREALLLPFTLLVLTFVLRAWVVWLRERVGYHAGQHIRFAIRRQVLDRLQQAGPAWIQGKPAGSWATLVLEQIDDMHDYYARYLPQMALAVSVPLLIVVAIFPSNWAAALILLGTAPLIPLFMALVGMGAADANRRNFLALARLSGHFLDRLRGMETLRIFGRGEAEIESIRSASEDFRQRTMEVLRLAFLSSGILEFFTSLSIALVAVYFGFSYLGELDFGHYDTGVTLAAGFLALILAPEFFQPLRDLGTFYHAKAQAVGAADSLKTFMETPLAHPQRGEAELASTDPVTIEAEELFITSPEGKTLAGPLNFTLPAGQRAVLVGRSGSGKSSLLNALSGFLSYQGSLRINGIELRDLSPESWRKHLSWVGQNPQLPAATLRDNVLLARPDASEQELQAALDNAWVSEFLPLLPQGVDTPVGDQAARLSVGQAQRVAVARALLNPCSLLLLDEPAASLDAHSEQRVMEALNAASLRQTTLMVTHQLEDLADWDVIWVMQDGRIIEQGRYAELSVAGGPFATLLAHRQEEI
# CydDC [3] = molecular target: T2, CydDC (Escherichia coli, UniProt P23886+P29018); test: single-particle cryo-EM structure; assay type: binding; conditions: IFasym apo state, active turnover
# T2 construct: gene cydC; full-length heterodimer, C-terminal His6 on CydC, from pTTQ18 (pcydDC) in E. coli BL21 pLysS (DE3); purified in DDM (ATPase assays) or LMNG (cryo-EM)
# T2 sequence (P23886 whole entry): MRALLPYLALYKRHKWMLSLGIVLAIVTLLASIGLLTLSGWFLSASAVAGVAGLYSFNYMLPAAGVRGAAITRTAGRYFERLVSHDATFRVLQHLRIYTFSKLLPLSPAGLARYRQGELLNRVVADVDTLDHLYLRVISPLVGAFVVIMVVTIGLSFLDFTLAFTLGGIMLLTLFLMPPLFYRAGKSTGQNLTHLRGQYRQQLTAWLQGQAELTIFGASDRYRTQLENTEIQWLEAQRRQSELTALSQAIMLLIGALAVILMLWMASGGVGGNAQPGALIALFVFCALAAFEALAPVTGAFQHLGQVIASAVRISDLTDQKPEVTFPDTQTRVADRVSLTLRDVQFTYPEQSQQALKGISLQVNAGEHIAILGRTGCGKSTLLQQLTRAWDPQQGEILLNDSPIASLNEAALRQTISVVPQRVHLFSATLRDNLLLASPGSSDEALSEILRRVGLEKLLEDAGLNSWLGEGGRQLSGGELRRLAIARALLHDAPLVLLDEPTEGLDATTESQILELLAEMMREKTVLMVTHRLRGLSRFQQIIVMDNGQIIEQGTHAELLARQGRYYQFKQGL
# T2 sequence (P29018 whole entry): as the sequence (P29018 whole entry) above
compound,measurement,setting,value
CydDC (Escherichia coli K-12),Km,[1],91.9 ± 9.7 µM
Nc1ncnc2c1ncn2[C@@H]1O[C@H](COP(=O)(O)OP(=O)(O)OP(=O)(O)O)[C@@H](O)[C@H]1O [ATP],single-particle cryo-EM structure,CydDC [2],The left panel shows a close-up view of ATP bound to NBS^D
same,single-particle cryo-EM structure,CydDC [3]; degenerate site NBS of CydD,"NBS^D conformations in the Occreturnapo (ATP), IFasymapo (ATP)"
Nc1ncnc2c1ncn2[C@@H]1O[C@H](COP(=O)(O)OP(=O)(O)O)[C@@H](O)[C@H]1O [ADP],single-particle cryo-EM structure,"CydDC [3]; site NBS of CydC, with Pi",obtained from the turnover dataset of CydDC to ADP and Pi
